# Measurements reported in patent US20230348442A1, “GALECTIN-3 INHIBITING 2-HYDROXYCYCLOALKANE-1-CARBAMOYL DERIVATIVES” (Idorsia Pharmaceuticals Ltd, priority 2020, published 2023).
# Target: human Gal-3 (hGal-3) (Homo sapiens (Human), UniProt P17931)
# Assay: competitive binding assay: binding of biotinylated hGal-3 to microplate-adsorbed asialofetuin (ASF), spectrophotometric
# Conditions: Activity on hGal-3; mean values of several measurements
# Description: Evaluation of Compound Inhibitory Activity (IC50)
# The inhibitory activity of compounds is determined in competitive binding assays. This spectrophotometric assay measures the binding of biotinylated human Gal-3 (hGal-3) or human Gal-1 (hGal-1), respectively, to a microplate-adsorbed glycoprotein, asialofetuin (ASF) (Proc Natl Acad Sci USA. 2013 Mar. 26; 110(13):5052-7.). Alternatively, and preferably, a human Gal-1 version in which all six cysteines are substituted by serines may be used.
# Briefly, compounds are serially diluted in DMSO (working dilutions). ASF-coated 384 well plates are supplemented with 22.8 μL/well of biotinylated hGal-3 or hGal-1 in assay buffer (i.e. 300-1000 ng/mL biotinylated hGal-3 or hGal-1) to which 1.2 μL of compound working dilutions are added and mixed.
# Plates are incubated for 3 hours at 4° C., then washed with cold assay buffer (3×50 uL), incubated for 1 hour with 25 μL/well of a streptavidin-peroxidase solution (diluted in assay buffer to 80 ng/mL) at 4° C., followed by further washing steps with assay buffer (3×50 uL). Finally, 25 μL/well of ABTS substrate is added.
# The calculated IC50 values may fluctuate depending on the daily assay performance. Fluctuations of this kind are known to those skilled in the art. IC50 values from several measurements are given as mean values.
# Sequence of human Gal-3 (hGal-3) (P17931 whole entry): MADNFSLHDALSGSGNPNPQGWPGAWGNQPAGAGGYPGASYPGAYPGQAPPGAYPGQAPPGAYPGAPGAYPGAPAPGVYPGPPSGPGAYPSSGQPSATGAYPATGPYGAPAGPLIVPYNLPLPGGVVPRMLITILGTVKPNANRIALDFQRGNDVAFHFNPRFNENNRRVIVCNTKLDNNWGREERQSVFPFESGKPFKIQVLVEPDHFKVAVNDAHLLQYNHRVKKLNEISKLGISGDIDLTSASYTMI
row,SMILES,IC50 [µM]
1,"CO[C@@H]1[C@@H](n2cc(-c3cc(F)c(F)c(F)c3)nn2)[C@@H](O)[C@@H](CO)O[C@H]1C(=O)N(c1cc(C)cc(Br)c1)[C@@H]1CCC[C@H]1O [Example 1.1.12R, (2R,3R,4S,5R,6R)-N-(3-bromo-5-methylphenyl)-5-hydroxy-N-((1R,2R)-2-hydroxycyclopentyl)-6-(hydroxymethyl)-3-methoxy-4-(4-(3,4,5-trifluorophenyl)-1H-1,2,3-triazol-1-yl)tetrahydro-2H-pyran-2-carboxamide]",0.348
2,"COc1cc(-c2cn([C@H]3[C@@H](O)[C@@H](CO)O[C@@H](C(=O)N(c4cc(Br)cc(C#N)c4)[C@H]4CCC[C@@H]4O)[C@@H]3OC)nn2)cc(F)c1F [Example 1.3.5, (2R,3R,4S,5R,6R)-N-(3-bromo-5-cyanophenyl)-4-(4-(3,4-difluoro-5-methoxyphenyl)-1H-1,2,3-triazol-1-yl)-5-hydroxy-N-((1S,2S)-2-hydroxycyclopentyl)-6-(hydroxymethyl)-3-methoxytetrahydro-2H-pyran-2-carboxamide]",0.0254
3,"COc1cc(-c2cn([C@H]3[C@@H](O)[C@@H](CO)O[C@@H](C(=O)N(c4cc(Br)cc(Br)c4)[C@@H]4CCC[C@H]4O)[C@@H]3OC)nn2)cc(F)c1F [Example 1.3.11R, (2R,3R,4S,5R,6R)—N-(3,5-dibromophenyl)-4-(4-(3,4-difluoro-5-methoxyphenyl)-1H-1,2,3-triazol-1-yl)-5-hydroxy-N-((1R,2R)-2-hydroxycyclopentyl)-6-(hydroxymethyl)-3-methoxytetrahydro-2H-pyran-2-carboxamide]",0.277
4,"COc1cc(-c2cn([C@H]3[C@@H](O)[C@@H](CO)O[C@@H](C(=O)N(c4cc(C)cc(Br)c4)[C@H]4CCC[C@@H]4O)[C@@H]3OC)nn2)cc(F)c1F [Example 1.3.12, (2R,3R,4S,5R,6R)-N-(3-bromo-5-methylphenyl)-4-(4-(3,4-difluoro-5-methoxyphenyl)-1H-1,2,3-triazol-1-yl)-5-hydroxy-N-((1S,2S)-2-hydroxycyclopentyl)-6-(hydroxymethyl)-3-methoxytetrahydro-2H-pyran-2-carboxamide]",0.0421
5,"CO[C@@H]1[C@@H](n2cc(-c3cc(F)c(C)c(F)c3)nn2)[C@@H](O)[C@@H](CO)O[C@H]1C(=O)N(c1cc(Cl)cc(Cl)c1)[C@H]1CCC[C@@H]1O [Example 1.4.2, (2R,3R,4S,5R,6R)-N-(3,5-dichlorophenyl)-4-(4-(3,5-difluoro-4-methylphenyl)-1H-1,2,3-triazol-1-yl)-5-hydroxy-N-((1S,2S)-2-hydroxycyclopentyl)-6-(hydroxymethyl)-3-methoxytetrahydro-2H-pyran-2-carboxamide]",0.0448
6,"CO[C@@H]1[C@@H](n2cc(-c3cc(F)c(C)c(F)c3)nn2)[C@@H](O)[C@@H](CO)O[C@H]1C(=O)N(c1cc(Br)cc(C#N)c1)[C@H]1CCC[C@@H]1O [Example 1.4.5, (2R,3R,4S,5R,6R)-N-(3-bromo-5-cyanophenyl)-4-(4-(3,5-difluoro-4-methylphenyl)-1H-1,2,3-triazol-1-yl)-5-hydroxy-N-((1S,2S)-2-hydroxycyclopentyl)-6-(hydroxymethyl)-3-methoxytetrahydro-2H-pyran-2-carboxamide]",0.0169
7,"CO[C@@H]1[C@@H](n2cc(-c3cc(F)c(Cl)c(F)c3)nn2)[C@@H](O)[C@@H](CO)O[C@H]1C(=O)N(c1cc(Cl)cc(C#N)c1)[C@H]1CCC[C@@H]1O [Example 1.5.4, (2R,3R,4S,5R,6R)-4-(4-(4-chloro-3,5-difluorophenyl)-1H-1,2,3-triazol-1-yl)-N-(3-chloro-5-cyanophenyl)-5-hydroxy-N-((1S,2S)-2-hydroxycyclopentyl)-6-(hydroxymethyl)-3-methoxytetrahydro-2H-pyran-2-carboxamide]",0.0367
8,"CO[C@@H]1[C@@H](n2cc(-c3cc(F)c(Cl)c(F)c3)nn2)[C@@H](O)[C@@H](CO)O[C@H]1C(=O)N(c1cc(Cl)cc(C#N)c1)[C@@H]1CCC[C@H]1O [Example 1.5.4R, (2R,3R,4S,5R,6R)-4-(4-(4-chloro-3,5-difluorophenyl)-1H-1,2,3-triazol-1-yl)-N-(3-chloro-5-cyanophenyl)-5-hydroxy-N-((1R,2R)-2-hydroxycyclopentyl)-6-(hydroxymethyl)-3-methoxytetrahydro-2H-pyran-2-carboxamide]",0.153
9,"CO[C@@H]1[C@@H](n2cc(-c3cc(F)c(Br)c(F)c3)nn2)[C@@H](O)[C@@H](CO)O[C@H]1C(=O)N(c1cc(Cl)cc(C#N)c1)[C@H]1CCC[C@@H]1O [Example 1.6.4, (2R,3R,4S,5R,6R)-4-(4-(4-bromo-3,5-difluorophenyl)-1H-1,2,3-triazol-1-yl)-N-(3-chloro-5-cyanophenyl)-5-hydroxy-N-((1S,2S)-2-hydroxycyclopentyl)-6-(hydroxymethyl)-3-methoxytetrahydro-2H-pyran-2-carboxamide]",0.0286

# Other lines, results leading:
row,IC50 [µM],SMILES
1,0.146,"CO[C@@H]1[C@@H](n2cc(-c3cc(F)cc(F)c3)nn2)[C@@H](O)[C@@H](CO)O[C@H]1C(=O)N(c1cc(Br)cc(C#N)c1)[C@H]1CCC[C@@H]1O [Example 1.2.5, (2R,3R,4S,5R,6R)-N-(3-bromo-5-cyanophenyl)-4-(4-(3,5-difluorophenyl)-1H-1,2,3-triazol-1-yl)-5-hydroxy-N-((1S,2S)-2-hydroxycyclopentyl)-6-(hydroxymethyl)-3-methoxytetrahydro-2H-pyran-2-carboxamide]"
2,0.451,"CO[C@@H]1[C@@H](n2cc(-c3cc(F)cc(F)c3)nn2)[C@@H](O)[C@@H](CO)O[C@H]1C(=O)N(c1cc(Br)cc(C#N)c1)[C@@H]1CCC[C@H]1O [Example 1.2.5R, (2R,3R,4S,5R,6R)-N-(3-bromo-5-cyanophenyl)-4-(4-(3,5-difluorophenyl)-1H-1,2,3-triazol-1-yl)-5-hydroxy-N-((1R,2R)-2-hydroxycyclopentyl)-6-(hydroxymethyl)-3-methoxytetrahydro-2H-pyran-2-carboxamide]"
3,0.0295,"COc1cc(-c2cn([C@H]3[C@@H](O)[C@@H](CO)O[C@@H](C(=O)N(c4cc(Cl)cc(Cl)c4)[C@H]4CCC[C@@H]4O)[C@@H]3OC)nn2)cc(F)c1F [Example 1.3.2, (2R,3R,4S,5R,6R)-N-(3,5-dichlorophenyl)-4-(4-(3,4-difluoro-5-methoxyphenyl)-1H-1,2,3-triazol-1-yl)-5-hydroxy-N-((1S,2S)-2-hydroxycyclopentyl)-6-(hydroxymethyl)-3-methoxytetrahydro-2H-pyran-2-carboxamide]"
4,0.0288,"COc1cc(-c2cn([C@H]3[C@@H](O)[C@@H](CO)O[C@@H](C(=O)N(c4cc(Br)cc(Br)c4)[C@H]4CCC[C@@H]4O)[C@@H]3OC)nn2)cc(F)c1F [Example 1.3.11, (2R,3R,4S,5R,6R)-N-(3,5-dibromophenyl)-4-(4-(3,4-difluoro-5-methoxyphenyl)-1H-1,2,3-triazol-1-yl)-5-hydroxy-N-((1S,2S)-2-hydroxycyclopentyl)-6-(hydroxymethyl)-3-methoxytetrahydro-2H-pyran-2-carboxamide]"
5,0.411,"COc1cc(-c2cn([C@H]3[C@@H](O)[C@@H](CO)O[C@@H](C(=O)N(c4cc(C)cc(Br)c4)[C@@H]4CCC[C@H]4O)[C@@H]3OC)nn2)cc(F)c1F [Example 1.3.12R, (2R,3R,4S,5R,6R)-N-(3-bromo-5-methylphenyl)-4-(4-(3,4-difluoro-5-methoxyphenyl)-1H-1,2,3-triazol-1-yl)-5-hydroxy-N-((1R,2R)-2-hydroxycyclopentyl)-6-(hydroxymethyl)-3-methoxytetrahydro-2H-pyran-2-carboxamide]"
6,0.0173,"CO[C@@H]1[C@@H](n2cc(-c3cc(F)c(C)c(F)c3)nn2)[C@@H](O)[C@@H](CO)O[C@H]1C(=O)N(c1cc(Cl)cc(C#N)c1)[C@H]1CCC[C@@H]1O [Example 1.4.4, (2R,3R,4S,5R,6R)-N-(3-chloro-5-cyanophenyl)-4-(4-(3,5-difluoro-4-methylphenyl)-1H-1,2,3-triazol-1-yl)-5-hydroxy-N-((1S,2S)-2-hydroxycyclopentyl)-6-(hydroxymethyl)-3-methoxytetrahydro-2H-pyran-2-carboxamide]"
7,0.0748,"CO[C@@H]1[C@@H](n2cc(-c3cc(F)c(C)c(F)c3)nn2)[C@@H](O)[C@@H](CO)O[C@H]1C(=O)N(c1cc(Cl)cc(C#N)c1)[C@@H]1CCC[C@H]1O [Example 1.4.4R, (2R,3R,4S,5R,6R)-N-(3-chloro-5-cyanophenyl)-4-(4-(3,5-difluoro-4-methylphenyl)-1H-1,2,3-triazol-1-yl)-5-hydroxy-N-((1R,2R)-2-hydroxycyclopentyl)-6-(hydroxymethyl)-3-methoxytetrahydro-2H-pyran-2-carboxamide]"
8,0.0339,"CO[C@@H]1[C@@H](n2cc(-c3cc(F)c(Cl)c(F)c3)nn2)[C@@H](O)[C@@H](CO)O[C@H]1C(=O)N(c1cc(Br)cc(C#N)c1)[C@H]1CCC[C@@H]1O [Example 1.5.5, (2R,3R,4S,5R,6R)-N-(3-bromo-5-cyanophenyl)-4-(4-(4-chloro-3,5-difluorophenyl)-1H-1,2,3-triazol-1-yl)-5-hydroxy-N-((1S,2S)-2-hydroxycyclopentyl)-6-(hydroxymethyl)-3-methoxytetrahydro-2H-pyran-2-carboxamide]"
